Test results taken from ChEMBL document CHEMBL1201862, “PubChem BioAssay data set” (2004).
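Results reflect a 48-hour exposure of cells in 96-well plates to compound at five concentrations. GI50 marks 50% less growth.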 Activity calls are given as the source filed them. Cut-off read from the data, not from the text of the source: active = GI50 up to about 1.1 µM and inactive = higher.

What was measured:
Test in all cases: NCI tumour cell line growth inhibition, 48 h
CCRF-CEM = system: CCRF-CEM
MOLT-4 = system: MOLT-4
DLD-1 = system: DLD-1
SN12C = system: SN12C
SR = system: SR
U-251 = system: U-251
CAKI-1 = system: CAKI-1
SF-539 = system: SF-539
ACHN = system: ACHN
RXF 393 = system: RXF 393
HOP-92 = system: HOP-92
COLO 205 = system: COLO 205
HCT-15 = system: HCT-15
A498 = system: A498
SK-MEL-2 = system: SK-MEL-2
M19-MEL = system: M19-MEL
SNB-19 = system: SNB-19
SK-MEL-28 = system: SK-MEL-28
SK-OV-3 = system: SK-OV-3
NCI-H522 = system: NCI-H522
OVCAR-4 = system: OVCAR-4
SW-620 = system: SW-620
KM-20L2 = system: KM-20L2
NCI-H460 = system: NCI-H460
HOP-18 = system: HOP-18
NCI-H23 = system: NCI-H23
NCI-H226 = system: NCI-H226
SF-268 = system: SF-268
TK-10 = system: TK-10
LOX IMVI = system: LOX IMVI
HCC 2998 = system: HCC 2998
RPMI-8226 = system: RPMI-8226
SK-MEL-5 = system: SK-MEL-5
SNB-78 = system: SNB-78
SF-295 = system: SF-295
UACC-62 = system: UACC-62
HOP-62 = system: HOP-62
KM12 = system: KM12
OVCAR-8 = system: OVCAR-8
XF498 = system: XF498
UACC-257 = system: UACC-257
K562 = system: K562
OVCAR-3 = system: OVCAR-3
HCT-116 = system: HCT-116
SNB-75 = system: SNB-75
DMS-273 = system: DMS-273
HL-60 = system: HL-60
DMS-114 = system: DMS-114
EKVX = system: EKVX
OVCAR-5 = system: OVCAR-5
A549 = system: A549
HT-29 = system: HT-29
UO-31 = system: UO-31
IGROV-1 = system: IGROV-1
Malme-3M = system: Malme-3M
M14 = system: M14
786-0 = system: 786-0

## NC(=O)C(=O)N/N=C1/c2ccccc2CC1C1(O)C(=O)Nc2c(Cl)cc(Cl)cc21 (configuration not stated)
CCRF-CEM
  GI50: 61.5 µM (inactive)
MOLT-4
  GI50: > 100 µM (inactive)
DLD-1
  GI50: > 100 µM (inactive)
SN12C
  GI50: > 100 µM (inactive)
SR
  GI50: 70.3 µM (inactive)
U-251
  GI50: > 100 µM (inactive)
CAKI-1
  GI50: 81.8 µM (inactive)
SF-539
  GI50: > 100 µM (inactive)
ACHN
  GI50: > 100 µM (inactive)
RXF 393
  GI50: 92 µM (inactive)
HOP-92
  GI50: > 100 µM (inactive)
COLO 205
  GI50: > 100 µM (inactive)
HCT-15
  GI50: > 100 µM
A498
  GI50: > 100 µM (inactive)
SK-MEL-2
  GI50: > 100 µM (inactive)
M19-MEL
  GI50: > 100 µM (inactive)
SNB-19
  GI50: > 100 µM (inactive)
SK-MEL-28
  GI50: > 100 µM (inactive)
SK-OV-3
  GI50: > 100 µM (inactive)
NCI-H522
  GI50: 61.4 µM (inactive)
OVCAR-4
  GI50: > 100 µM (inactive)
SW-620
  GI50: > 100 µM (inactive)
KM-20L2
  GI50: > 100 µM (inactive)
NCI-H460
  GI50: > 100 µM (inactive)
HOP-18
  GI50: > 100 µM (inactive)
NCI-H23
  GI50: > 100 µM (inactive)
NCI-H226
  GI50: > 100 µM (inactive)
SF-268
  GI50: > 100 µM (inactive)
TK-10
  GI50: > 100 µM (inactive)
LOX IMVI
  GI50: 88.3 µM (inactive)
HCC 2998
  GI50: > 100 µM (inactive)
RPMI-8226
  GI50: > 100 µM (inactive)
SK-MEL-5
  GI50: > 100 µM (inactive)
SNB-78
  GI50: > 100 µM (inactive)
SF-295
  GI50: > 100 µM (inactive)
UACC-62
  GI50: > 100 µM (inactive)
HOP-62
  GI50: > 100 µM (inactive)
KM12
  GI50: > 100 µM (inactive)
OVCAR-8
  GI50: > 100 µM (inactive)
XF498
  GI50: > 100 µM (inactive)
UACC-257
  GI50: > 100 µM (inactive)
K562
  GI50: 88.7 µM (inactive)
OVCAR-3
  GI50: > 100 µM (inactive)
HCT-116
  GI50: > 100 µM (inactive)
SNB-75
  GI50: 97.3 µM (inactive)
DMS-273
  GI50: > 100 µM (inactive)
HL-60
  GI50: > 100 µM (inactive)
DMS-114
  GI50: > 100 µM (inactive)
EKVX
  GI50: > 100 µM (inactive)
OVCAR-5
  GI50: > 100 µM (inactive)
A549
  GI50: 69.7 µM (inactive)
HT-29
  GI50: > 100 µM (inactive)
UO-31
  GI50: > 100 µM (inactive)
IGROV-1
  GI50: > 100 µM (inactive)
Malme-3M
  GI50: > 100 µM (inactive)

## CC1CC(=O)CC[C@@H]1OCc1ccccc1 (some centres not stated)
CCRF-CEM
  GI50: 53.8 µM (inactive)
MOLT-4
  GI50: 54.3 µM (inactive)
DLD-1
  GI50: > 100 µM (inactive)
SN12C
  GI50: > 100 µM (inactive)
U-251
  GI50: > 100 µM (inactive)
CAKI-1
  GI50: > 100 µM (inactive)
SF-539
  GI50: > 100 µM (inactive)
ACHN
  GI50: > 100 µM (inactive)
RXF 393
  GI50: > 100 µM (inactive)
COLO 205
  GI50: > 100 µM (inactive)
HCT-15
  GI50: > 100 µM
A498
  GI50: > 100 µM (inactive)
SK-MEL-2
  GI50: > 100 µM (inactive)
M19-MEL
  GI50: > 100 µM (inactive)
SNB-19
  GI50: > 100 µM (inactive)
SK-OV-3
  GI50: > 100 µM (inactive)
OVCAR-4
  GI50: > 100 µM (inactive)
SW-620
  GI50: > 100 µM (inactive)
KM-20L2
  GI50: > 100 µM (inactive)
NCI-H460
  GI50: > 100 µM (inactive)
HOP-18
  GI50: > 100 µM (inactive)
NCI-H23
  GI50: > 100 µM (inactive)
SF-268
  GI50: > 100 µM (inactive)
TK-10
  GI50: > 100 µM (inactive)
M14
  GI50: > 100 µM (inactive)
LOX IMVI
  GI50: > 100 µM (inactive)
HCC 2998
  GI50: > 100 µM (inactive)
RPMI-8226
  GI50: 47 µM (inactive)
SK-MEL-5
  GI50: > 100 µM (inactive)
SNB-78
  GI50: > 100 µM (inactive)
SF-295
  GI50: > 100 µM (inactive)
UACC-62
  GI50: > 100 µM (inactive)
786-0
  GI50: > 100 µM (inactive)
HOP-62
  GI50: > 100 µM (inactive)
KM12
  GI50: > 100 µM (inactive)
OVCAR-8
  GI50: > 100 µM (inactive)
XF498
  GI50: > 100 µM (inactive)
UACC-257
  GI50: > 100 µM (inactive)
K562
  GI50: 58.1 µM (inactive)
OVCAR-3
  GI50: > 100 µM (inactive)
HCT-116
  GI50: 81.3 µM (inactive)
SNB-75
  GI50: > 100 µM (inactive)
DMS-273
  GI50: > 100 µM (inactive)
HL-60
  GI50: > 100 µM (inactive)
DMS-114
  GI50: 94.2 µM (inactive)
EKVX
  GI50: > 100 µM (inactive)
OVCAR-5
  GI50: > 100 µM (inactive)
A549
  GI50: > 100 µM (inactive)
HT-29
  GI50: > 100 µM (inactive)
UO-31
  GI50: > 100 µM (inactive)
IGROV-1
  GI50: > 100 µM (inactive)
Malme-3M
  GI50: > 100 µM (inactive)
